Results from patent publication US20240309038A1, “NOVEL GALACTOSIDE INHIBITOR OF GALECTINS” (GALECTO BIOTECH AB, priority 2020, published 2024).

The molecules below were run against Gal-3 (Homo sapiens, UniProt P17931) (assay: Fluorescence anisotropy assay, inhibition of galectin / fluorescein tagged saccharide probe interaction).
Type: binding
Method: The affinity of Example 1-59 for galectins were determined by a fluorescence anisotropy assay where the compound was used as an inhibitor of the interaction between galectin and a fluorescein tagged saccharide probe as described Sörme, P., Kahl-Knutsson, B., Huflejt, M., Nilsson, U. J., and Leffler H. (2004) Fluorescence polarization as an analytical tool to evaluate galectin-ligand interactions. Anal. Biochem. 334: 36-47, (Sarme et al., 2004)

Chain of Gal-3 (P17931 whole entry, species assumed): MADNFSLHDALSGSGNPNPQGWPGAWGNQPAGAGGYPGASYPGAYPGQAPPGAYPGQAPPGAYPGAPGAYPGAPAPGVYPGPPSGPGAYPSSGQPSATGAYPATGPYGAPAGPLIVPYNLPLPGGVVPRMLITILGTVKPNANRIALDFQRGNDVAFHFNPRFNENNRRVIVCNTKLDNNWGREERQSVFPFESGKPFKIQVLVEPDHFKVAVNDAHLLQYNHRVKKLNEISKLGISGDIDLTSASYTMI

Row | Kd | SMILES
1 | 260 nM | Cc1nc([C@@H]2OC(CO)[C@H](O)C(n3cc(-c4cc(F)c(F)c(F)c4)cn3)C2O)n(-c2ccc3nc(C)sc3c2Cl)n1 (stereo in doubt) [Example 40, 7-Chloro-6-{5-{3-deoxy-3-[4-(3,4,5-trifluorophenyl)-1H-1,2-pyrazol-1-yl]-β-D-galactopyranosyl}-3-methyl-1H-1,2,4-triazol-1-yl}-2-methylbenzothiazole]
2 | 36 nM | Cc1nc([C@@H]2OC(CO)[C@H](O)C(n3cc(-c4cc(F)c(F)c(F)c4)c(Cc4ccccc4)n3)C2O)n(-c2cc(Cl)ccc2C(F)(F)F)n1 (stereo in doubt) [Example 50, 1-{5-{3-[3-Benzyl-4-(3,4,5-trifluorophenyl)-1H-1,2-pyrazol-1-yl]-3-deoxy-β-D-galactopyranosyl}-3-methyl-1H-1,2,4-triazol-1-yl}-5-chloro-2-(trifluoromethyl)benzene]
3 | 11 nM | Cc1nc([C@@H]2OC(CO)[C@H](O)C(n3cc(-c4cc(F)c(F)c(F)c4)cn3)C2O)n(-c2cc(Br)cnc2C(F)(F)F)n1 (stereo in doubt) [Example 25, 5-Bromo-3-{5-{3-deoxy-3-[4-(3,4,5-trifluorophenyl)-1H-1,2-pyrazol-1-yl]-β-D-galactopyranosyl}-3-methyl-1H-1,2,4-triazol-1-yl}-2-(trifluoromethyl)pyridine]
4 | 12 nM | Cc1nc([C@@H]2OC(CO)[C@H](O)C(n3cc(-c4cc(F)c(Cl)c(F)c4)c(C#N)n3)C2O)n(-c2cc(Cl)ccc2C(F)(F)F)n1 (stereo in doubt) [Example 31, 1-{5-{3-[4-(4-Chloro-3,5-difluorophenyl)-3-cyano-1H-1,2-pyrazol-1-yl]-3-deoxy-β-D-galactopyranosyl}-3-methyl-1H-1,2,4-triazol-1-yl}-5-chloro-2-(trifluoromethyl)benzene]
5 | 13 nM | Cc1nc([C@@H]2OC(CO)[C@H](O)C(n3cc(-c4cc(F)c(C)cn4)cn3)C2O)n(-c2cc(Cl)ccc2C(F)(F)F)n1 (stereo in doubt) [Example 15, 5-Chloro-1-{5-{3-deoxy-3-[4-(4-fluoro-5-methylpyridin-2-yl)-1H-1,2-pyrazol-1-yl]-β-D-galactopyranosyl}-3-methyl-1H-1,2,4-triazol-1-yl}-2-(trifluoromethyl)benzene]
6 | 13 nM | Cc1nc([C@@H]2OC(CO)[C@H](O)C(n3cc(-c4cc(F)c(F)c(F)c4)c(C)n3)C2O)n(-c2cc(Cl)ccc2C(F)(F)F)n1 (stereo in doubt) [Example 49, 5-Chloro-1-{5-{3-deoxy-3-[4-(3,4,5-trifluorophenyl)-3-methyl-1H-1,2-pyrazol-1-yl]-β-D-galactopyranosyl}-3-methyl-1H-1,2,4-triazol-1-yl}-2-(trifluoromethyl)benzene]
7 | 140 nM | Cc1nc([C@@H]2OC(CO)[C@H](O)C(n3cc(-c4cc(C)c(Cl)cn4)cn3)C2O)n(-c2cc(Cl)ccc2C(F)(F)F)n1 (stereo in doubt) [Example 16, 1-{5-{3-[4-(5-Chloro-4-methylpyridin-2-yl)-1H-1,2-pyrazol-1-yl]-3-deoxy-β-D-galactopyranosyl}-3-methyl-1H-1,2,4-triazol-1-yl}-5-chloro-2-(trifluoromethyl)benzene]
8 | 97 nM | Cc1nc([C@@H]2OC(CO)[C@H](O)C(n3cc(-c4cccc(Cl)c4)cn3)C2O)n(-c2cc(Cl)ccc2C(F)(F)F)n1 (stereo in doubt) [Example 58, 1-{5-{3-[4-(3-Chlorophenyl)-1H-1,2-pyrazol-1-yl]-3-deoxy-β-D-galactopyranosyl}-3-methyl-1H-1,2,4-triazol-1-yl}-5-chloro-2-(trifluoromethyl)benzene]
9 | 23 nM | Cc1nc([C@@H]2OC(CO)[C@H](O)C(n3cc(-c4cc(F)c(Cl)c(F)c4)c(C(N)=O)n3)C2O)n(-c2cc(Cl)ccc2C(F)(F)F)n1 (stereo in doubt) [Example 32, 1-{5-{3-[3-Aminocarbonyl-4-(4-chloro-3,5-difluorophenyl)-1H-1,2-pyrazol-1-yl]-3-deoxy-β-D-galactopyranosyl}-3-methyl-1H-1,2,4-triazol-1-yl}-5-chloro-2-(trifluoromethyl)benzene]
10 | 12 nM | CCc1nc2ccc(-n3nc(C)nc3[C@@H]3OC(CO)[C@H](O)C(n4cc(-c5cc(F)c(F)c(F)c5)cn4)C3O)cc2s1 (stereo in doubt) [Example 35, 6-{5-{3-Deoxy-3-[4-(3,4,5-trifluorophenyl)-1H-1,2-pyrazol-1-yl]-β-D-galactopyranosyl}-3-methyl-1H-1,2,4-triazol-1-yl}-2-ethylbenzothiazole]
11 | 7 nM | Cc1nnc([C@@H]2OC(CO)[C@H](O)C(n3cc(-c4cc(F)c(Cl)c(F)c4)cn3)C2O)n1-c1cc(Cl)ccc1C(F)(F)F (single isomer, unassigned) [Example 11, 1-{3-{3-[4-(4-Chloro-3,5-difluorophenyl)-1H-1,2-pyrazol-1-yl]-3-deoxy-β-D-galactopyranosyl}-5-methyl-4H-1,2,4-triazol-4-yl}-5-chloro-2-(trifluoromethyl)benzene]
12 | 9 nM | Cc1nc([C@@H]2OC(CO)[C@H](O)C(n3cc(-c4cc(F)c(F)c(F)c4)cn3)C2O)n(-c2cc(Cl)ccc2C(F)(F)F)n1 (stereo in doubt) [Example 3, 5-Chloro-1-{5-{3-deoxy-3-[4-(3,4,5-trifluorophenyl)-1H-1,2-pyrazol-1-yl]-β-D-galactopyranosyl}-3-methyl-1H-1,2,4-triazol-1-yl}-2-(trifluoromethyl)benzene]
13 | 2 nM | Cc1nc([C@@H]2OC(CO)[C@H](O)C(n3cc(-c4cc(F)c(F)c(F)c4)cn3)C2O)n(-c2cc(Br)ccc2C(F)(F)F)n1 (stereo in doubt) [Example 24, 5-Bromo-1-{5-{3-deoxy-3-[4-(3,4,5-trifluorophenyl)-1H-1,2-pyrazol-1-yl]-β-D-galactopyranosyl}-3-methyl-1H-1,2,4-triazol-1-yl}-2-(trifluoromethyl)benzene]
14 | 11 nM | Cc1nc([C@@H]2OC(CO)[C@H](O)C(n3cc(-c4cc(F)c(F)c(F)c4)cn3)C2O)n(-c2cc(Cl)cnc2C(F)(F)F)n1 (stereo in doubt) [Example 20, 5-Chloro-3-{5-{3-deoxy-3-[4-(3,4,5-trifluorophenyl)-1H-1,2-pyrazol-1-yl]-β-D-galactopyranosyl}-3-methyl-1H-1,2,4-triazol-1-yl}-2-(trifluoromethyl)pyridine]
15 | 240 nM | Cc1nc([C@@H]2OC(CO)[C@H](O)C(n3cc(-c4cc(F)c(F)c(F)c4)c(-c4cccc(F)c4)n3)C2O)n(-c2cc(Cl)ccc2C(F)(F)F)n1 (stereo in doubt) [Example 54, 5-Chloro-1-{5-{3-deoxy-3-[4-(3,4,5-trifluorophenyl)-3-(3-fluorophenyl)-1H-1,2-pyrazol-1-yl]-β-D-galactopyranosyl}-3-methyl-1H-1,2,4-triazol-1-yl}-2-(trifluoromethyl)benzene]
16 | 370 nM | Cc1nnc([C@@H]2OC(CO)[C@H](O)C(n3cc(-c4cc(F)c(Cl)c(F)c4)cn3)C2O)n1-c1cc(Cl)ccc1C(F)(F)F (single isomer, unassigned) [Example 10, 1-{3-{3-[4-(4-Chloro-3,5-difluorophenyl)-1H-1,2-pyrazol-1-yl]-3-deoxy-β-D-galactopyranosyl}-5-methyl-4H-1,2,4-triazol-4-yl}-5-chloro-2-(trifluoromethyl)benzene]
17 | 15 nM | Cc1nc([C@@H]2OC(CO)[C@H](O)C(n3cc(-c4cc(F)c(F)c(F)c4)cn3)C2O)n(-c2cc(Br)ccc2C#N)n1 (stereo in doubt) [Example 26, 5-Bromo-2-cyano-1-{5-{3-deoxy-3-[4-(3,4,5-trifluorophenyl)-1H-1,2-pyrazol-1-yl]-β-D-galactopyranosyl}-3-methyl-1H-1,2,4-triazol-1-yl}benzene]
18 | 51 nM | Cc1nc([C@@H]2OC(CO)[C@H](O)C(n3cc(-c4ccc(Cl)cc4)cn3)C2O)n(-c2cc(Cl)ccc2C(F)(F)F)n1 (stereo in doubt) [Example 59, 1-{5-{3-[4-(4-Chlorophenyl)-1H-1,2-pyrazol-1-yl]-3-deoxy-β-D-galactopyranosyl}-3-methyl-1H-1,2,4-triazol-1-yl}-5-chloro-2-(trifluoromethyl)benzene]
19 | 80 nM | Cc1nc([C@@H]2OC(CO)[C@H](O)C(n3cc(-c4cc(F)c(F)c(F)c4)c(-c4ccccc4)n3)C2O)n(-c2cc(Cl)ccc2C(F)(F)F)n1 (stereo in doubt) [Example 47, 5-Chloro-1-{5-{3-deoxy-3-[4-(3,4,5-trifluorophenyl)-3-phenyl-1H-1,2-pyrazol-1-yl]-β-D-galactopyranosyl}-3-methyl-1H-1,2,4-triazol-1-yl}-2-(trifluoromethyl)benzene]
20 | 19 nM | Cc1nc([C@@H]2OC(CO)[C@H](O)C(n3cc(-c4cc(F)c(F)c(F)c4)cn3)C2O)n(-c2cc(C#N)ccc2C(F)(F)F)n1 (stereo in doubt) [Example 46, 5-Cyano-1-{5-{3-deoxy-3-[4-(3,4,5-trifluorophenyl)-1H-1,2-pyrazol-1-yl]-β-D-galactopyranosyl}-3-methyl-1H-1,2,4-triazol-1-yl}-2-(trifluoromethyl)benzene]
21 | 17 nM | Cc1nc([C@@H]2OC(CO)[C@H](O)C(n3cc(-c4cc(F)c(F)c(F)c4)cn3)C2O)n(-c2cc3sc(C)nc3cc2C#N)n1 (stereo in doubt) [Example 44, 5-Cyano-6-{5-{3-deoxy-3-[4-(3,4,5-trifluorophenyl)-1H-1,2-pyrazol-1-yl]-β-D-galactopyranosyl}-3-methyl-1H-1,2,4-triazol-1-yl}-2-methylbenzothiazole]
22 | 9 nM | Cc1nc([C@@H]2OC(CO)[C@H](O)C(n3cc(-c4cc(F)c(F)c(F)c4)cn3)C2O)n(-c2ccc3ncsc3c2)n1 (stereo in doubt) [Example 34, 6-{5-{3-Deoxy-3-[4-(3,4,5-trifluorophenyl)-1H-1,2-pyrazol-1-yl]-β-D-galactopyranosyl}-3-methyl-1H-1,2,4-triazol-1-yl}benzothiazole]
